Where a name gives a salt, the structure may show the parent alone. Read-outs that look alike come from different tables or passages of the source.
How the values were obtained:
[1] = test system: adriamycin-induced cardiomyopathy
Description: The composition of the present invention was examined for suppression effects against adriamycin-induced cardiomyopathy.
A total of 25 male mice (33±5 g, four-week-old) were divided into four groups: three test groups of seven, and one control group of four. Adriamycin (tradename: Doxorubicin Hydrochloride; Sigma-Aldrich, Co, LLC; St. Louis, Mo., USA) in distilled water was intraperitoneally injected at a dose of 1.25 mg/kg once a week for six weeks in the adriamycin group. The other two experimental groups, low-dose and high-dose group, were orally administered with composition 4 at a dose of 32 mg/kg and 64 mg/kg, respectively, everyday for one week, and then intraperitoneally injected with adriamycin in distilled water at a dose of 1.25 mg/kg once a week for six weeks. The control group of 4 mice was injected once a week for six weeks with physiological saline. During the experiment, the mice were given access to food and water ad libitum.
The mice were generally anesthetized before and after the six-week experiment, and subjected to two-dimensional echocardiography using a 15-MHz transducer to measure left ventricular end-diastolic dimension (LVEDD) and left ventricular end-systolic dimension (LVESD), left ventricular end-diastolic posterior wall thickness (PW), and left ventricular end-systolic posterior wall thickness (PW). From these measurements, relative wall thickness (RWT), fraction shortening (FS), and left ventricular ejection fraction (LVEF) were calculated. The echocardiographic data are expressed as mean value±SD of five or higher independent measurements.

[2] = test system: SKOV3 ovarian carcinoma cell line; experiment: Inhibition of cancer cell proliferation, MTT assay, SKOV3; format: cell-based; conditions: SKOV3, 24 hrs incubation
Description: (§1) Ovarian […] carcinoma cell lines (SKOV3, A2780) were incubated in minimum essential medium [MEM] supplemented with 10% FBS, 100 units/ml antibiotic antimycotic, and 2.2 g/L sodium bicarbonate at 37° C. for 24 hrs in 96-well plates. The ovarian carcinoma cell lines were seeded at a density of 1×10^4 cells/well into 96-well plates and allowed to adhere to the bottom during incubation for 24 hrs. […] The cells in each well were treated with […] of an MTT reagent (1 mg/ml) for 4 hrs in a dark condition. After the medium was aspirated, the MTT fromazan thus formed was dissolved in […] of DMSO, and absorbance was measured at 540 nm using spectrophotometer.

[3] = test system: A2780 ovarian carcinoma cell line; experiment: Inhibition of cancer cell proliferation, MTT assay, A2780; format: cell-based; conditions: A2780, 24 hrs incubation
Description: as §1

[4] = test system: Ovarian carcinoma cells (SKOV3); experiment: Apoptosis by PI staining / FACS, co-treatment with Cisplatin; format: cell-based; conditions: Individual, 48 hrs
Description: Apoptotic effects were assessed using a PI staining method. Propidium iodide (PI) is a fluorescent molecule that can bind to DNA of dead cells to evaluate cell cycle and cell viability.
Ovarian carcinoma cells (SKOV3) were incubated at 37° C. for 24 hrs in minimum essential medium [MEM] supplemented with 10% FBS, 100 units/ml antibiotic antimycotic, and 2.2 g/L sodium bicarbonate in 96-well plates. The ovarian carcinoma cell line was seeded at a density of 1×10^4 cells/well into 96-well plates and allowed to adhere to the bottom during incubation for 24 hrs. […] Afterwards, the cells were washed with PBS, and detached with trypsin-EDTA, followed by centrifugation at 1,000 rpm for 10 min. The cells were fixed with 70% ethanol at 4° C. for 24 hrs. After removal of the ethanol, the cells were washed many times with PBS, suspended in PBS containing RNaseA, and reacted with a PI reagent for 10 min at room temperature in a dark condition.

[5] = test system: ovarian carcinoma cell line SKOV3 tumors; experiment: SKOV3 ovarian carcinoma xenograft, tumor volume and weight; format: in vivo, Balb/c nu/nu mice
Description: The ovarian carcinoma cell line SKOV3 was detached from a culture dish using trypsin-EDTA, and diluted to a density of […] cells/150 in an RPMI medium supplemented with 10% FBS, followed by subcutaneous injection into the right flank of Balb/c nu/nu mice using a syringe. […] The control group was treated with PBS. During the experimental period, the tumor size, body weight and dietary intake of mice in each group was recorded three times per week.
After 4 weeks, the animals were sacrificed and blood was taken from the animals. Tumors were e.xcised from the animals and measured for size and weight.

[6] = Dietary intake (anorexia) in SKOV3 tumor-bearing mice; format: in vivo, Balb/c nu/nu mice; conditions: for Diet Intake: Cisplatin group (cisplatin 3 mg/kg i.p.)
[7] = Adriamycin Group, Week 0 (Baseline)

COc1cccc2c1C(=O)c1c(O)c3c(c(O)c1C2=O)C[C@@](O)(C(=O)CO)C[C@@H]3O[C@H]1C[C@H](N)[C@H](O)[C@H](C)O1 [Adriamycin, Doxorubicin Hydrochloride]
LVEDD [1, 7]: 5.7 ± 0.2 mm | LVESD [1, 7]: 2.4 ± 0.3 mm | PW [1, 7]: 1.6 ± 0.2 mm | FS ([1]; Adriamycin Group, Week 6): 44.2 ± 3.2% | LVEF ([1]; Adriamycin Group, Week 6): 70.3 ± 0.3% | LVESD ([1]; Adriamycin Group, Week 6): 3.8 ± 0.3 mm | PW ([1]; Adriamycin Group, Week 6): 1.4 ± 0.3 mm | FS Δ(6 − 0) ([1]; Adriamycin Group, Δ(6 − 0)): 14.4 ± 1.5% | LVEDD Δ(6 − 0) ([1]; Adriamycin Group, Δ(6 − 0)): 1.1 ± 0.1 mm | LVEF Δ(6 − 0) ([1]; Adriamycin Group, Δ(6 − 0)): 15.2 ± 3.0% | LVESD Δ(6 − 0) ([1]; Adriamycin Group, Δ(6 − 0)): 1.4 ± 0.0 mm | PW Δ(6 − 0) ([1]; Adriamycin Group, Δ(6 − 0)): 0.2 ± 0.1 mm | cardiomyopathy after 6 weeks ([1]; echocardiography after 6 weeks of study): cardiomyopathy with significant decrease in left ventricular posterior wall thickness (PW) and in fractional shortening (FS)

N.N.[Cl][Pt][Cl] [Cisplatin, cis-Diammineplatinum (II) dichloride]
IC50 SKOV3 [2]: 12.3 µg/mL | IC50 A2780 [3]: 6.01 µg/mL | Apoptosis (%) ([4]; Cisplatin 3 μM): 3.0% | Apoptosis (%) ([4]; Cisplatin 5 μM): 3.5% | tumor size compared to control ([5]; 4 weeks administration): slightly reduced | Tumor Weight after 4 Weeks ([5]; Cisplatin alone (3 mg/kg i.p.)): 1.7 gram | Tumor Volume ([5]; Cisplatin alone (3 mg/kg i.p.), Week 1): 100 mm3 | Tumor Volume ([5]; Cisplatin alone (3 mg/kg i.p.), Week 2): 134 mm3 | Tumor Volume ([5]; Cisplatin alone (3 mg/kg i.p.), Week 3): 144 mm3 | Tumor Volume ([5]; Cisplatin alone (3 mg/kg i.p.), Week 4): 162 mm3 | Diet Intake ([6]; Week 0): 4.8 gram | Diet Intake ([6]; Week 1): 4.6 gram | Diet Intake ([6]; Week 2): 4.0 gram | Diet Intake ([6]; Week 3): 3.7 gram | Diet Intake ([6]; Week 4): 4.1 gram | dietary intake compared to control group ([6]; during the experimental periods): decrease in dietary intake

— patent publication US20130217760A1, “METHOD FOR ENHANCING THERAPEUTIC EFFECT OF ANTICANCER THERAPIES” (BOTAMEDI INC., priority 2012, published 2013)
